Earlier results on 1 compound are cited in patent publication US20250032525A1 (priority 2021, published 2025).

As usually defined, the IC50 is the concentration that inhibits the measured activity by half.

The subject of this data set is HT29. The conditions noted are these: HT29, NCI-60 database, sulforhodamine B; read-out: Cytotoxic IC50; cited from earlier work.

As to `COc1cccc2c1C(=O)c1c(O)c3c(c(O)c1C2=O)C[C@@](O)(C(=O)CO)C[C@@H]3O[C@H]1C[C@H](N)[C@H](O)[C@H](C)O1` [DOX, doxorubicin], the half-inhibitory concentration (IC50) is 171 nM.
